What was measured:
Assay in all cases: relative viability (nuclei count vs DMSO), 5 days (fraction); higher = more cells survive
[1] = compound: COc1cc2ncn(-c3cc(OCc4ccccc4C(F)(F)F)c(C(N)=O)s3)c2cc1OC + COc1cccc2cc(-c3nc([C@H]4CC[C@H](C(=O)O)CC4)n4ncnc(N)c34)[nH]c12 [OSI-027] (partner 0.5 µM)
How it was run: (§1)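 After 5 days of treatment, lung cancer cells in 1536-well plates were fixed and stained in a single step (final 0.05% Triton X-100, 1% formaldehyde, 1 ug/ml Hoechst) and their nuclei counted on 4× images. Treatment had been applied by pin tool the day after seeding as one drug alone or as a fixed anchor-drug dose with five library-drug doses (not always all listed) in √10 steps. Relative viability is the nuclei count of treated wells divided by that of vehicle wells, and values are medians of duplicate plates.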

[2] = compound: COc1cc2ncn(-c3cc(OCc4ccccc4C(F)(F)F)c(C(N)=O)s3)c2cc1OC + CC(=O)Nc1cccc(-n2c(=O)n(C3CC3)c(=O)c3c(Nc4ccc(I)cc4F)n(C)c(=O)c(C)c32)c1 [Trametinib] (partner 0.02 µM)
How it was run: as §1

[3] = compound: COc1cc2ncn(-c3cc(OCc4ccccc4C(F)(F)F)c(C(N)=O)s3)c2cc1OC + N=C(N)NC(=N)NCCc1ccccc1 [Phenformin] (partner 250 µM)
How it was run: as §1

[4] = compound: COc1cc2ncn(-c3cc(OCc4ccccc4C(F)(F)F)c(C(N)=O)s3)c2cc1OC + C[C@@H](Oc1cc(-c2cnn(C3CCNCC3)c2)cnc1N)c1c(Cl)ccc(F)c1Cl [Crizotinib] (partner 1 µM)
How it was run: as §1

Cell Line | relative viability ([1]; first compound 0.05 µM) | relative viability ([1]; first compound 0.1581 µM) | relative viability ([1]; first compound 0.5 µM) | relative viability ([1]; first compound 1.581 µM) | relative viability ([1]; first compound 5 µM) | relative viability ([2]; first compound 0.05 µM) | relative viability ([2]; first compound 0.1581 µM) | relative viability ([2]; first compound 0.5 µM) | relative viability ([2]; first compound 1.581 µM) | relative viability ([2]; first compound 5 µM) | relative viability ([3]; first compound 0.05 µM) | relative viability ([3]; first compound 0.1581 µM) | relative viability ([3]; first compound 0.5 µM) | relative viability ([3]; first compound 1.581 µM) | relative viability ([3]; first compound 5 µM) | relative viability ([4]; first compound 0.05 µM) | relative viability ([4]; first compound 0.1581 µM) | relative viability ([4]; first compound 0.5 µM) | relative viability ([4]; first compound 1.581 µM) | relative viability ([4]; first compound 5 µM)
NCI-H3122 | 1.01 | 0.555 | 0.124 | 0.113 | 0.157 | 0.209 | 0.213 | 0.143 | 0.135 | 0.155 | 0.362 | 0.37 | 0.16 | 0.143 | 0.128 | 0.245 | 0.288 | 0.23 | 0.186 | 0.173
PC-3 [JPC-3] | 0.79 | 0.767 | 0.423 | 0.169 | 0.198 | 0.697 | 0.698 | 0.536 | 0.407 | 0.279 | 0.494 | 0.501 | 0.381 | 0.184 | 0.187 | 0.987 | 1.01 | 0.778 | 0.34 | 0.27
PC-14 | 0.861 | 0.904 | 0.254 | 0.0302 | 0.027 | 0.555 | 0.727 | 0.281 | 0.053 | 0.0472 | 0.501 | 0.561 | 0.465 | 0.119 | 0.0948 | 0.83 | 0.828 | 0.564 | – | 0.411
RERF-LC-KJ | 0.534 | 0.494 | 0.226 | 0.205 | 0.253 | 0.935 | 0.915 | 0.57 | 0.456 | 0.5 | 0.376 | 0.396 | 0.229 | 0.272 | 0.259 | 0.813 | 0.887 | 0.766 | – | 0.545
SK-LU-1 | 0.33 | 0.332 | 0.168 | 0.196 | 0.188 | 0.469 | 0.297 | 0.324 | 0.295 | 0.223 | 0.563 | 0.519 | 0.216 | 0.163 | 0.15 | 0.935 | 0.832 | 0.411 | 0.296 | 0.313
SK-MES-1 | 0.554 | 0.602 | 0.219 | 0.129 | 0.143 | 0.578 | 0.623 | 0.538 | 0.177 | 0.228 | 0.559 | 0.636 | 0.234 | 0.197 | 0.121 | 0.971 | 0.861 | 0.627 | – | 0.476
SW 1573 | 0.757 | 0.606 | 0.281 | 0.129 | 0.105 | 0.545 | 0.56 | 0.41 | 0.11 | 0.0977 | 0.232 | 0.413 | 0.143 | 0.103 | 0.0927 | 0.786 | 0.859 | 0.514 | 0.134 | 0.293
UMC-11 | 0.469 | 0.34 | 0.147 | 0.169 | 0.14 | 0.543 | 0.195 | 0.194 | 0.156 | 0.12 | 0.271 | 0.201 | 0.158 | 0.173 | 0.168 | 0.627 | 0.484 | 0.141 | 0.0823 | 0.102
